Here are results for eight molecules from PubChem BioAssay AID248 (DTP/NCI, 2004).

Several values for one entry are separate records, joined by “and”; a condition that tells them apart may be missing. Equal entries are not always repeated. Toxic doses and inconclusive results are not listed.

For this assay, the system named is L1210 leukemia ip in BDF1 mice, survival T/C. In words: NCI In Vivo Anticancer Drug Screen. Data for tumor model L1210 Leukemia (intraperitoneal) in B6D2F1 (BDF1) mice. The conditions noted are these: endpoint: mean survival time, higher = longer survival. In a few lines: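 Read-out is survival time, reported as the treated-group measurement over the vehicle-control measurement.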

The mark [1] stands for this setting: dose: 100.0 mg/kg/injection, schedule: Q04DX003 (ip), vehicle: Klucel (hydroxypropylcellulose) (HPC).
Setting [2] is: dose: 200.0 mg/kg/injection, schedule: Q04DX003 (ip), vehicle: Klucel (hydroxypropylcellulose) (HPC).
The mark [3] stands for this setting: dose: 222.0 mg/kg/injection, schedule: Q01DX Z (ip), vehicle: methylcellulose (MC).
The mark [4] stands for this setting: dose: 333.0 mg/kg/injection, schedule: Q01DX Z (ip), vehicle: methylcellulose (MC).
[5] abbreviates: dose: 400.0 mg/kg/injection, schedule: Q04DX003 (ip), vehicle: Klucel (hydroxypropylcellulose) (HPC).
[6] abbreviates: dose: 500.0 mg/kg/injection, schedule: Q01DX Z (ip), vehicle: methylcellulose (MC).

On to `CCN(CC)CCOc1c(C(C)C)cccc1C(C)C`, for which the T/C reads like this: (dose: 12.5 mg/kg/injection, schedule: Q01DX009 (ip), vehicle: saline) 101 % of control; (dose: 25.0 mg/kg/injection, schedule: Q01DX009 (ip), vehicle: saline) 108 % of control; (dose: 50.0 mg/kg/injection, schedule: Q01DX009 (ip), vehicle: saline) 108 % of control and 89 % of control; (dose: 100.0 mg/kg/injection, schedule: Q04DX003 (ip), vehicle: saline) 117 % of control.

On to `O=C(CCCl)N1CCN(C(=O)CCCl)CC1`, for which the T/C reads like this: (dose: 100.0 mg/kg/injection, schedule: Q01DX009 (ip), vehicle: Klucel (hydroxypropylcellulose) (HPC)) 106 % of control; (dose: 100.0 mg/kg/injection, schedule: Q01DX009 (ip), vehicle: saline) 103 % of control; under setting [1], 100 % of control; (dose: 117.32 mg/kg/injection, schedule: Q01DX009 (ip), vehicle: saline) 119 % of control; (dose: 148.0 mg/kg/injection, schedule: Q01DX Z (ip), vehicle: methylcellulose (MC)) 100 % of control; (dose: 176.0 mg/kg/injection, schedule: Q01DX009 (ip), vehicle: saline) 100 % of control. The T/C was 108 % of control (dose: 200.0 mg/kg/injection, schedule: Q01DX009 (ip), vehicle: Klucel (hydroxypropylcellulose) (HPC)); 119 % of control (dose: 200.0 mg/kg/injection, schedule: Q01DX009 (ip), vehicle: saline); 99 % of control under setting [2]; 104 % of control under setting [3]; 116 % of control (dose: 264.0 mg/kg/injection, schedule: Q01DX009 (ip), vehicle: saline); 119 % of control under setting [4]. For the same molecule, the T/C is 122 % of control (dose: 400.0 mg/kg/injection, schedule: Q01DX009 (ip), vehicle: Klucel (hydroxypropylcellulose) (HPC)); 161 % of control and 167 % of control (dose: 400.0 mg/kg/injection, schedule: Q01DX009 (ip), vehicle: saline); 121 % of control under setting [5]; 97 % of control under setting [6]; 155 % of control (dose: 800.0 mg/kg/injection, schedule: Q01DX009 (ip), vehicle: Klucel (hydroxypropylcellulose) (HPC)).

In the case of `COc1ccc(CN2CCCN(Cc3ccc(OC)cc3OC)C2c2ccc(OC)cc2OC)c(OC)c1`, the T/C was 93 % of control (dose: 50.0 mg/kg/injection, schedule: Q01DX001 (ip), vehicle: carboxymethylcellulose (CMC)); 104 % of control (dose: 100.0 mg/kg/injection, schedule: Q01DX001 (ip), vehicle: carboxymethylcellulose (CMC)); 93 % of control (dose: 200.0 mg/kg/injection, schedule: Q01DX001 (ip), vehicle: carboxymethylcellulose (CMC)); 98 % of control (dose: 400.0 mg/kg/injection, schedule: Q01DX001 (ip), vehicle: carboxymethylcellulose (CMC)).

Regarding `CCCCCC1CCC(C(=O)O)CC1` (stereo not drawn), the T/C by setting is: (dose: 100.0 mg/kg/injection, schedule: Q04DX003 (ip), vehicle: saline with Tween-80) 88 % of control; (dose: 200.0 mg/kg/injection, schedule: Q04DX003 (ip), vehicle: saline with Tween-80) 93 % of control.

For `Cc1cc(C)c2c(c1)-c1nc3c(cc1CC2)CCc1c(C)cc(C)cc1-3`, the T/C is 100 % of control under setting [1], 95 % of control under setting [2] and 97 % of control under setting [5].

`O=NN(CCF)C(=O)NC1CCCCCCCCCCC1`: the T/C is, setting by setting: (dose: 40.0 mg/kg/injection, schedule: Q01DX001 (ip), vehicle: other) 108 % of control; (dose: 60.0 mg/kg/injection, schedule: Q01DX001 (ip), vehicle: other) 112 % of control.

In the case of `N#CCN1C(=O)c2ccccc2S1(=O)=O`, the T/C reads like this: under setting [3], 110 % of control; under setting [4], 113 % of control; under setting [6], 102 % of control.

For `C=C[Si](C)(C=C)C=C`, the T/C (dose: 100.0 mg/kg/injection, schedule: Q01DX005 (ip), vehicle: saline) is 94 % of control; the T/C (dose: 200.0 mg/kg/injection, schedule: Q01DX005 (ip), vehicle: saline) is 97 % of control; the T/C (dose: 400.0 mg/kg/injection, schedule: Q01DX005 (ip), vehicle: saline) was 94 % of control.
